Test results as given in ChEMBL document CHEMBL1147101, “Development and persistence of antimicrobial resistance in Pseudomonas aeruginosa: a longitudinal observation in mechanically ventilated patients” (Antimicrob Agents Chemother, 2007).
Activity calls are given as the source filed them. The rule behind the calls is not given here.

Legend:
Type in all cases: functional, organism-based
Details in all cases: Trachea
[1] = system: Pseudomonas aeruginosa; experiment: Antimicrobial activity against Pseudomonas aeruginosa 29G8 tracheal isolates from mechanically ventilated chronic respiratory insufficiency patient
[2] = system: Pseudomonas aeruginosa; experiment: Antimicrobial activity against Pseudomonas aeruginosa 9A3 tracheal isolates from mechanically ventilated chronic respiratory insufficiency patient
[3] = system: Pseudomonas aeruginosa; experiment: Antimicrobial activity against Pseudomonas aeruginosa 19E2 tracheal isolates from mechanically ventilated chronic respiratory insufficiency patient
[4] = system: Pseudomonas aeruginosa; experiment: Antimicrobial activity against Pseudomonas aeruginosa 24E5 tracheal isolates from mechanically ventilated chronic respiratory insufficiency patient
[5] = system: Pseudomonas aeruginosa; experiment: Antimicrobial activity against Pseudomonas aeruginosa 65.33-4 tracheal isolates from mechanically ventilated tuberculosis patient
[6] = system: Pseudomonas aeruginosa; experiment: Antimicrobial activity against Pseudomonas aeruginosa 9B5 tracheal isolates from mechanically ventilated chronic respiratory insufficiency patient
[7] = system: Pseudomonas aeruginosa; experiment: Antimicrobial activity against Pseudomonas aeruginosa 10B1 tracheal isolates from mechanically ventilated chronic respiratory insufficiency patient
[8] = system: Pseudomonas aeruginosa; experiment: Antimicrobial activity against Pseudomonas aeruginosa 10B3 tracheal isolates from mechanically ventilated chronic respiratory insufficiency patient
[9] = system: Pseudomonas aeruginosa; experiment: Antimicrobial activity against Pseudomonas aeruginosa 19E9 tracheal isolates from mechanically ventilated chronic respiratory insufficiency patient
[10] = system: Pseudomonas aeruginosa; experiment: Antimicrobial activity against Pseudomonas aeruginosa 12B2 tracheal isolates from mechanically ventilated chronic respiratory insufficiency patient
[11] = system: Pseudomonas aeruginosa; experiment: Antimicrobial activity against Pseudomonas aeruginosa 24G1 tracheal isolates from mechanically ventilated chronic respiratory insufficiency patient
[12] = system: Pseudomonas aeruginosa; experiment: Antimicrobial activity against Pseudomonas aeruginosa 65.36-1 tracheal isolates from mechanically ventilated tuberculosis patient
[13] = system: Pseudomonas aeruginosa; experiment: Antimicrobial activity against Pseudomonas aeruginosa 65.18-4 tracheal isolates from mechanically ventilated tuberculosis patient
[14] = system: Pseudomonas aeruginosa; experiment: Antimicrobial activity against Pseudomonas aeruginosa 65.68-3 tracheal isolates from mechanically ventilated tuberculosis patient
[15] = system: Pseudomonas aeruginosa; experiment: Antimicrobial activity against Pseudomonas aeruginosa 15H5 tracheal isolates from mechanically ventilated chronic respiratory insufficiency patient
[16] = system: Pseudomonas aeruginosa; experiment: Antimicrobial activity against Pseudomonas aeruginosa P21.21 tracheal isolates from mechanically ventilated tuberculosis patient
[17] = system: Pseudomonas aeruginosa; experiment: Antimicrobial activity against Pseudomonas aeruginosa 10A6 tracheal isolates from mechanically ventilated chronic respiratory insufficiency patient
[18] = system: Pseudomonas aeruginosa; experiment: Antimicrobial activity against Pseudomonas aeruginosa 9B2 tracheal isolates from mechanically ventilated chronic respiratory insufficiency patient
[19] = system: Pseudomonas aeruginosa; experiment: Antimicrobial activity against Pseudomonas aeruginosa 2A5 tracheal isolates from mechanically ventilated chronic respiratory insufficiency patient
[20] = system: Pseudomonas aeruginosa; experiment: Antimicrobial activity against Pseudomonas aeruginosa 65.38-1 tracheal isolates from mechanically ventilated tuberculosis patient
[21] = system: Pseudomonas aeruginosa; experiment: Antimicrobial activity against Pseudomonas aeruginosa P21.23 tracheal isolates from mechanically ventilated tuberculosis patient
[22] = system: Pseudomonas aeruginosa; experiment: Antimicrobial activity against Pseudomonas aeruginosa 65.33-2 tracheal isolates from mechanically ventilated tuberculosis patient
[23] = system: Pseudomonas aeruginosa; experiment: Antimicrobial activity against Pseudomonas aeruginosa 19B6 tracheal isolates from mechanically ventilated chronic respiratory insufficiency patient
[24] = system: Pseudomonas aeruginosa; experiment: Antimicrobial activity against Pseudomonas aeruginosa 19D9 tracheal isolates from mechanically ventilated chronic respiratory insufficiency patient
[25] = system: Pseudomonas aeruginosa; experiment: Antimicrobial activity against Pseudomonas aeruginosa 29F6 tracheal isolates from mechanically ventilated chronic respiratory insufficiency patient
[26] = system: Pseudomonas aeruginosa; experiment: Antimicrobial activity against Pseudomonas aeruginosa 2A6 tracheal isolates from mechanically ventilated tuberculosis patient
[27] = system: Pseudomonas aeruginosa; experiment: Antimicrobial activity against Pseudomonas aeruginosa 1A9 tracheal isolates from mechanically ventilated tuberculosis patient
[28] = system: Pseudomonas aeruginosa; experiment: Antimicrobial activity against Pseudomonas aeruginosa 2C1 tracheal isolates from mechanically ventilated tuberculosis patient
[29] = system: Pseudomonas aeruginosa; experiment: Antimicrobial activity against Pseudomonas aeruginosa 2A9 tracheal isolates from mechanically ventilated tuberculosis patient
[30] = system: Pseudomonas aeruginosa; experiment: Antimicrobial activity against Pseudomonas aeruginosa 9A10 tracheal isolates from mechanically ventilated chronic respiratory insufficiency patient
[31] = system: Pseudomonas aeruginosa; experiment: Antimicrobial activity against Pseudomonas aeruginosa 2C2 tracheal isolates from mechanically ventilated tuberculosis patient
[32] = system: Pseudomonas aeruginosa; experiment: Antimicrobial activity against Pseudomonas aeruginosa 5F8 tracheal isolates from mechanically ventilated chronic respiratory insufficiency patient
[33] = system: Pseudomonas aeruginosa; experiment: Antimicrobial activity against Pseudomonas aeruginosa 65.68-2 tracheal isolates from mechanically ventilated tuberculosis patient
[34] = system: Pseudomonas aeruginosa; experiment: Antimicrobial activity against Pseudomonas aeruginosa 3D10 tracheal isolates from mechanically ventilated chronic respiratory insufficiency patient
[35] = system: Pseudomonas aeruginosa; experiment: Antimicrobial activity against Pseudomonas aeruginosa 15G2 tracheal isolates from mechanically ventilated chronic respiratory insufficiency patient
[36] = system: Pseudomonas aeruginosa; experiment: Antimicrobial activity against Pseudomonas aeruginosa 12A7 tracheal isolates from mechanically ventilated chronic respiratory insufficiency patient
[37] = system: Pseudomonas aeruginosa; experiment: Antimicrobial activity against Pseudomonas aeruginosa 2A7 tracheal isolates from mechanically ventilated tuberculosis patient
[38] = system: Pseudomonas aeruginosa; experiment: Antimicrobial activity against Pseudomonas aeruginosa 29G7 tracheal isolates from mechanically ventilated chronic respiratory insufficiency patient
[39] = system: Pseudomonas aeruginosa; experiment: Antimicrobial activity against Pseudomonas aeruginosa 13E1 tracheal isolates from mechanically ventilated chronic respiratory insufficiency patient
[40] = system: Pseudomonas aeruginosa; experiment: Antimicrobial activity against Pseudomonas aeruginosa 8B11 tracheal isolates from mechanically ventilated chronic respiratory insufficiency patient
[41] = system: Pseudomonas aeruginosa; experiment: Antimicrobial activity against Pseudomonas aeruginosa 3D1 tracheal isolates from mechanically ventilated chronic respiratory insufficiency patient
[42] = system: Pseudomonas aeruginosa; experiment: Antimicrobial activity against Pseudomonas aeruginosa 5G3 tracheal isolates from mechanically ventilated chronic respiratory insufficiency patient
[43] = system: Pseudomonas aeruginosa; experiment: Antimicrobial activity against Pseudomonas aeruginosa 2A2 tracheal isolates from mechanically ventilated tuberculosis patient
[44] = system: Pseudomonas aeruginosa; experiment: Antimicrobial activity against Pseudomonas aeruginosa 2F6 tracheal isolates from mechanically ventilated tuberculosis patient
[45] = system: Pseudomonas aeruginosa; experiment: Antimicrobial activity against Pseudomonas aeruginosa 65.38-3 tracheal isolates from mechanically ventilated tuberculosis patient
[46] = system: Pseudomonas aeruginosa; experiment: Antimicrobial activity against Pseudomonas aeruginosa 22C5 tracheal isolates from mechanically ventilated chronic respiratory insufficiency patient
[47] = system: Pseudomonas aeruginosa; experiment: Antimicrobial activity against Pseudomonas aeruginosa 10A9 tracheal isolates from mechanically ventilated chronic respiratory insufficiency patient
[48] = system: Pseudomonas aeruginosa; experiment: Antimicrobial activity against Pseudomonas aeruginosa 2A5 tracheal isolates from mechanically ventilated tuberculosis patient
[49] = system: Pseudomonas aeruginosa; experiment: Antimicrobial activity against Pseudomonas aeruginosa 22E1 tracheal isolates from mechanically ventilated chronic respiratory insufficiency patient
[50] = system: Pseudomonas aeruginosa; experiment: Antimicrobial activity against Pseudomonas aeruginosa 65.33-1 tracheal isolates from mechanically ventilated tuberculosis patient
[51] = system: Pseudomonas aeruginosa; experiment: Antimicrobial activity against Pseudomonas aeruginosa 29G6 tracheal isolates from mechanically ventilated chronic respiratory insufficiency patient
[52] = system: Pseudomonas aeruginosa; experiment: Antimicrobial activity against Pseudomonas aeruginosa 9A1 tracheal isolates from mechanically ventilated chronic respiratory insufficiency patient
[53] = system: Pseudomonas aeruginosa; experiment: Antimicrobial activity against Pseudomonas aeruginosa 5H6 tracheal isolates from mechanically ventilated chronic respiratory insufficiency patient
[54] = system: Pseudomonas aeruginosa; experiment: Antimicrobial activity against Pseudomonas aeruginosa 12A3 tracheal isolates from mechanically ventilated chronic respiratory insufficiency patient
[55] = system: Pseudomonas aeruginosa; experiment: Antimicrobial activity against Pseudomonas aeruginosa 65.68-1 tracheal isolates from mechanically ventilated tuberculosis patient
[56] = system: Pseudomonas aeruginosa; experiment: Antimicrobial activity against Pseudomonas aeruginosa 8A12 tracheal isolates from mechanically ventilated chronic respiratory insufficiency patient
[57] = system: Pseudomonas aeruginosa; experiment: Antimicrobial activity against Pseudomonas aeruginosa 3B1 tracheal isolates from mechanically ventilated tuberculosis patient
[58] = system: Pseudomonas aeruginosa; experiment: Antimicrobial activity against Pseudomonas aeruginosa 16D5 tracheal isolates from mechanically ventilated chronic respiratory insufficiency patient
[59] = system: Pseudomonas aeruginosa; experiment: Antimicrobial activity against Pseudomonas aeruginosa 1B9 tracheal isolates from mechanically ventilated tuberculosis patient

Structure (SMILES): CC(C)(O/N=C(\C(=O)N[C@@H]1C(=O)N2C(C(=O)[O-])=C(C[n+]3ccccc3)CS[C@H]12)c1csc(N)n1)C(=O)O
- Activity [1]: Active
- Activity [2]: Active
- Activity [3]: Active
- Activity [4]: Active
- Activity [5]: Active
- Activity [6]: Active
- Activity [7]: Active
- Activity [8]: Active
- Activity [9]: Active
- Activity [10]: Active
- Activity [11]: Active
- Activity [12]: Active
- Activity [13]: Active
- Activity [14]: Active
- Activity [15]: Active
- Activity [16]: Active
- Activity [17]: Active
- Activity [18]: Active
- Activity [19]: Active
- Activity [20]: inactive
- Activity [21]: Active
- Activity [22]: Active
- Activity [23]: Active
- Activity [24]: Active
- Activity [25]: Active
- Activity [26]: inactive
- Activity [27]: inactive
- Activity [28]: inactive
- Activity [29]: inactive
- Activity [30]: Active
- Activity [31]: Active
- Activity [32]: Active
- Activity [33]: Active
- Activity [34]: Active
- Activity [35]: Active
- Activity [36]: Active
- Activity [37]: inactive
- Activity [38]: Active
- Activity [39]: Active
- Activity [40]: Active
- Activity [41]: Active
- Activity [42]: Active
- Activity [43]: Active
- Activity [44]: inactive
- Activity [45]: inactive
- Activity [46]: Active
- Activity [47]: Active
- Activity [48]: Active
- Activity [49]: Active
- Activity [50]: Active
- Activity [51]: Active
- Activity [52]: Active
- Activity [53]: Active
- Activity [54]: Active
- Activity [55]: Active
- Activity [56]: Active
- Activity [57]: Active
- Activity [58]: Active
- Activity [59]: inactive
